Structure (SMILES)	melting point [°C]
COc1ccc(C(=C2CN(C(c3ccccc3)c3ccccc3)C2)S(C)(=O)=O)cc1	181
CCOc1nn(Cc2ccc(OCc3coc(-c4ccccc4)n3)cc2)cc1CCC(=O)O	135 to 136
C[C@@H]1Nc2nc(Cl)ccc2NC1=O	236 to 237
CC(=O)Nc1nc2c(s1)-c1nc(N3CCCC(CNC(=O)OC(C)(C)C)C3)ncc1CC2 (configuration not stated)	250 to 255
CCCNC(=O)NS(=O)(=O)N1CCC(CCNC(=O)c2cc(Cl)ccc2OC)CC1	140 to 142
O=c1ccc(OS(=O)(=O)C(F)(F)F)n[nH]1	130 to 132
Fc1ccc(F)c(CN2CCNc3ncc(-c4cn[nH]c4)cc32)c1Cl	272
COC(=O)[C@@H](NC(=O)Nc1n[nH]c(=S)s1)c1ccccc1	137 to 139
CNC(=S)n1nc(C=Cc2ccc(Cl)cc2)nc1N	209 to 210
CCNc1ncccc1-c1cscc1-c1cccnc1F	127 to 129
O=C(O)c1ccc(OCCCc2ccccc2)cc1	165 to 166
CCC1(O)NC(=O)C2(c3ccc(Cl)cc3)CC12 (configuration not stated)	117 to 124
Cc1nnc(-c2ccc3occ(-c4cc(Cl)ccc4Cl)c3c2)o1	185 to 186
CN1CCC2(CC1)OCc1ccccc12	76 to 77
O=C1N(N2CCOCC2)c2ccccc2C1(O)Cc1ccncc1 (configuration not stated)	198 to 200
CC(C)(C)OC(=O)C(Cl)=CC1C(C(=O)OC(C#N)c2ccc(F)c(Oc3ccccc3)c2)C1(C)C (configuration not stated)	94
Nc1ccc(NC(=O)CCC(=O)O)cc1	180 to 181
Cc1cccc(CSc2c(O)cc(-c3ccccc3)oc2=O)c1	139 to 140
O=C(C=Cc1ccco1)c1cnc2sc3c(n12)CCCCC3	161 to 162
COC(=O)c1cc2cc(C(=O)c3ccc(F)cc3)sc2s1	220
COC(=O)CC[C@H](NC(=O)c1cn(C(c2ccccc2)(c2ccccc2)c2ccccc2)c(C#Cc2cnc3nc(NC(=O)C(C)(C)C)nc(O)c3c2)n1)C(=O)OC	93 to 95
CC(C)CN1CCn2c1nc1[nH]cnc1c2=O	233 to 237
CCOC(=O)C(C)ON=C(C)C (configuration not stated)	59 to 61
CCC(CC)C(NS(=O)(=O)c1ccc(Cl)s1)C(C)O (configuration not stated)	95 to 98
COc1cc(C=O)ccc1C1OC(CO)C(O)C(O)C1O (configuration not stated)	188 to 190
CCCOCc1cc(OC)c(-c2ccc(C[C@H](NC(=O)c3c(Cl)cccc3Cl)C(=O)O)cc2)c(OC)c1	183 to 186

Structure (SMILES)	melting point [°C]
CNc1ncc(S(=O)(=O)NC(=O)NC(C)C)c(Nc2cccc(C)c2)n1	206 to 207
Oc1c2c(nc3ccc(C4CCCCC4)cc13)CCCC2	292 to 295
N#CC=CNCC(=O)c1cccc(Cl)c1Cl	125 to 127
CCOC(=O)c1nc(-c2ccc(F)cc2)[nH]c1CC	197 to 198
CC1=Nc2ccccc2N(Cc2ccccc2)C(=O)C1Cc1ccccc1 (configuration not stated)	140 to 141
N#Cc1ccc(CCCCCC(=O)O)cc1	61 to 62
NC(=O)C1c2ccccc2SN1CCN1CCN(c2nsc3ccccc23)CC1 (configuration not stated)	160 to 163
CCc1cn(N=Cc2ccccc2)c(N)n1	164 to 167
CC(C)n1cc(-c2nc(C(N)=O)c(N)nc2-c2cc(F)cc(F)c2)ccc1=O	249
COc1cncnc1N1CCN(CCCc2c[nH]c3ccc(Nc4c(OC(C)C)c(=O)c4=O)cc23)CC1	140 to 143
O=[N+]([O-])c1ccccc1NCCNc1ccccc1	64 to 66
CC(=O)c1c(C)sc2ccnn12	130 to 131
N=c1n(CCO)c2ccccc2n1-c1ccccc1	210 to 212
COC(=O)c1cc(-c2ccccc2Cl)c(=O)n2ncc3ccc(Cl)cc3c12	200 to 202
CCOC(=O)c1c(CN(CC)CC)nc2sc(C)c(C)c2c1-c1ccc(Cl)cc1	98 to 100
Cc1ccc(C2CCCN2S(=O)(=O)c2ccc(F)cc2)cc1 (racemic)	112
O=C1[C@H]2CCC[C@H]2Nc2cc([N+](=O)[O-])ccc2N1Cc1ccccc1 (relative stereo)	174 to 176
COc1cc(N(Cc2cncs2)c2ccc(C(=O)O)cc2)ccc1C(N)=O	197
COc1ccc2ccc(N3C(=O)c4ccccc4C3OC(=O)CCCNC(C)=O)nc2n1 (configuration not stated)	190
CCCCCCCCCCCCCCCCCCOc1cc(OCCCOc2ccc(C(C)(C)C)cc2)cc(N(CC(=O)O)CC(=O)O)c1	99 to 101
COc1ccc(CONC(=O)Cn2nnnc2S)cc1	167 to 168
Nc1ccc2[nH]c(C(=O)N3CC(CCl)c4c3cc(N)c3ccccc43)cc2c1 (configuration not stated)	> 300
O=C(NCC(F)(F)F)c1cccc(-c2nc(=O)c3ccccc3s2)n1	243 to 244
CN(C)c1ccc(N=Nc2ccccc2C(=O)NCCNC(=O)OC(C)(C)C)cc1	131 to 134
O=C(/C=C/c1ccc(O)c(C(F)(F)F)c1)/C=C/c1ccc(O)c(C(F)(F)F)c1	233 to 234
COc1cccc(OC)c1-c1nc2nccnc2[nH]1	248 to 249

Structure (SMILES)	melting point [°C]
CC(C)(CO)NC(=O)c1ccccc1-c1ccccc1	38.5 to 40.5
Cc1ccc(S(=O)(=O)OCC2Cc3cccc(OS(=O)(=O)C(F)(F)F)c3O2)cc1 (configuration not stated)	60 to 63
CCc1[nH]n(C2CCCC2)c2nc(-c3cc(C)nc(Cl)c3)nc(=O)c1-2	277 to 278
COC(=O)c1ccccc1Oc1ccc(S(=O)(=O)NCc2ccnc3ccccc23)cc1	163 to 166
Cc1ccc(OCc2nc(-c3ccccc3)oc2C)cn1	103 to 104
COCCOC(=O)C1=C(C(F)F)NC(C)=C(C(=O)OC(C)C)C1c1cccc(Cl)c1Cl (configuration not stated)	127 to 128
O=c1[nH]c(=O)n(CCO)c2ccccc12	274
COC(=O)C1=CCC2CC(=O)C12 (configuration not stated)	58 to 61
Cc1cc(CC#N)cc(Cc2nc3c(F)c(F)ccc3s2)c1	84 to 86
COc1cc2ccc(Br)cc2cc1C12CC3CC(CC(C3)C1)C2	164 to 168
OCCOCc1c(Br)c(Br)c(COCCO)c(Br)c1Br	145 to 147
O=C1CN(C(=O)OCc2ccccc2)CC(=O)O1	133 to 137
OCC1(Nc2nc(-c3ccc(Br)cc3)cs2)CC1	129 to 131
COc1cc(C(=O)N(C(C)C)C2CCCCC2)ccc1CN(C(=O)CCl)c1cccnc1O	127 to 129
CCc1cn(C2CC(O)C(CNC(=O)Cc3cccs3)O2)c(=O)[nH]c1=O (configuration not stated)	215 to 217
CC(=O)NCCC1CCc2ccc3nc(C(F)(F)F)oc3c21 (configuration not stated)	114 to 116
COc1ccccc1NC(=O)Nc1nc(NCc2cccs2)nc(N(CCC(=O)O)Cc2cccc(C)c2)n1	89 to 95
Cc1oc(-c2ccc(S(C)(=O)=O)cc2)c(Oc2ccc(Cl)cc2)c(=O)c1Br	251
CCn1c2ccccc2c2cc(I)ccc21	78 to 80
NC(=O)c1cc(CO)ccc1[N+](=O)[O-]	143 to 145
Cc1cc(CCCCCOc2c(Cl)cc(-c3cccs3)cc2Cl)on1	45 to 47
COc1cc(OC)nc(Oc2ccc3ncccc3c2C(=O)O)n1	195 to 198
NC(=O)c1cccc(OCc2ccc(Br)cc2)c1	160 to 161
COc1ccc(C(=O)C(=O)c2cccc(-c3ccc(S(C)(=O)=O)cc3)c2-c2ccccc2)cc1OC	181 to 183
NC(=O)NN=Cc1ccc(Oc2ccc3c(c2)CCCC3)cc1	202 to 204
COC(=O)c1cccc(CN2C(=O)C(CCO)Oc3ccccc32)c1 (configuration not stated)	73 to 75

Structure (SMILES)	melting point [°C]
O=C(O)CCCCCNC(=O)OCC1c2ccccc2-c2ccccc21	116
CN1CCN(CCn2c3ccccc3c(=NN=C3NCCS3)c3ccccc32)CC1	204 to 205
COc1cc(-n2cc(C(=O)O)c(=O)c3cc(F)c(F)c(Cl)c32)ccc1F	> 280
CCOC(=O)C(C(=O)OCC)c1ccc(Br)cc1[N+](=O)[O-]	54 to 55
C=CCON=C(CC)C1=C(O)CC(c2c(C)c(C)c3c(c2C)CC(C)(C)C3)CC1=O (configuration not stated)	63 to 65
O=C1CCCc2onc(-c3ccccc3F)c21	82 to 83
Cn1c(-c2cccs2)nnc1S(C)=O (configuration not stated)	105 to 107
CCCCCCCCCCC(C)(C)NC(=O)Nc1cc(OC)cc(C(C)(C)C)c1OCOC	83 to 85
CCc1nc(/C=C/c2cn(-c3ccccc3)nc2OCc2ccc(OCc3nc(/C=C/C(=O)O)oc3C)c(OC)c2)cs1	125 to 126
CCCc1nc2c(N)nc3ccccc3c2n1O	232 to 235
O=C1C(CBr)=C(CBr)C(=O)C(CBr)=C1CBr	169 to 172
CC(C)(C)c1cc(/C=C/C(=O)CC(=O)/C=C/c2cc(C(C)(C)C)c(O)c(C(C)(C)C)c2)cc(C(C)(C)C)c1O	192 to 196
CCCCCCCCCCSC(=S)N1Cc2[nH]c3ccccc3c2CC1CO (configuration not stated)	115 to 118
N#Cc1nn(-c2c([N+](=O)[O-])cc(C(F)(F)F)cc2[N+](=O)[O-])c(N)c1SC(F)(F)F	214
CC(C)c1cc(C2SCC(=O)N2CCCCl)cc(C(C)C)c1O (configuration not stated)	105 to 106
COC(=O)C(C#N)CC(=O)c1ccc(Cl)cc1 (configuration not stated)	75 to 79
CC(C)n1cc(C(=O)NCc2ccc(Cl)cc2)c(=O)c2cc(CN3CCOCC3)sc21	191 to 195
CC(C)(C)OC(=O)N1CCN(c2nccs2)CC1	114 to 116
Cn1c(=O)c(-c2ccc(Cl)cc2Cl)cc2c3cc(-c4ncco4)ccc3n(C)c21	232 to 233
COc1cccc(-c2cccc3nc(Nc4cc(OC)c(OC)c(OC)c4)oc23)c1	167 to 170
CC(=O)Nc1c(C)cc2c(nc3n2CCC3)c1[N+](=O)[O-]	198
CC(C)(C)OC(=O)NN(Cc1cc(F)cc(F)c1)C(N)=O	129 to 130
CCNc1nnc(C(C)(C)C)c(=O)n1N	177
N#Cc1ccc(/C=C/C2=CCN(Cc3c[nH]c4ncccc34)CC2)cc1	213 to 215

From a melting point compilation (Tetko et al.; mined from patent text by program, amines drawn as free bases though some values may be those of a salt)
